From patent US20240190854A1, “PYRIMIDINE OR PYRIDINE DERIVATIVES USEFUL AS HCN2 MODULATORS” (King's College London, priority 2021, published 2024)
Structures can show the parent of a compound that is named as a salt. Where two headings read alike, the source gives them in different places.

Tests used:
HCN2 [1] = molecular target: T1, HCN2 (Homo sapiens (Human), UniProt Q9UL51); experiment: HCN2 current assay using the Sophion Qube; type: cell-based; details: Sophion Qube protocol; read-out: SQ HCN2 IC50
Method: (§1) Example 126B, Using the Sophion Qube
(§2) Solutions for recording HCN currents were:
(§3) This voltage protocol was applied every 20 seconds for the duration of the experiment. Both the vehicle (0.3% DMSO) and full block (3 mM CsCl) addition periods were applied for 10 experimental sweeps each.
(§4) The current amplitudes were measured by subtracting metric A from metric B (see FIG. 2) with inhibition calculated by normalising to the vehicle addition (0.3% DMSO) and full inhibition by 3 mM CsCl in the same well.
(§5) In total, compound was applied to the well for 600 seconds.

HCN4 [2] = molecular target: T2, HCN4 (Homo sapiens (Human), UniProt Q9Y3Q4); experiment: HCN4 current assay using the Sophion Qube; type: cell-based; details: Sophion Qube protocol; read-out: SQ HCN4 IC50
Method: as §1, §2, §3, §4, §5

HCN1 [3] = molecular target: T3, HCN1 (Homo sapiens (Human), UniProt O60741); experiment: HCN1 current assay using the Sophion Qube; type: cell-based; details: Sophion Qube protocol; read-out: SQ HCN1 IC50
Method: as §1, §2, §3, §4, §5

hERG channel [4] = molecular target: T4, hERG channel (Homo sapiens (Human), UniProt Q12809); experiment: hERG assay using Sophion Qube; type: cell-based; details: Sophion Qube protocol; read-out: SQ hERG IC50
Method: Example 127B, Using Sophion Qube
(§6) Solutions for recording hERG currents were:
This voltage protocol was applied every 15 seconds for the duration of the experiment. Both the vehicle and 1st compound addition periods were applied for 10 sweeps. The 2nd compound addition period was applied for 20 sweeps. The compound concentration was added to the test well twice to assure complete exchange of the external buffer with the test compound. In total, compound was applied to the well for 450 seconds.

hNav1.5 [5] = molecular target: T5, hNav1.5 (Homo sapiens (Human), UniProt Q14524)
Method: The cells were held at −100 mV followed by a depolarising step to −10 mV for 100 milliseconds before stepping back to −100 mV, this represents 1 experimental sweep.
For tonic block (0.1 Hz), the peak currents evoked by the step to −10 mV were measured for the analysis of the percentage inhibition by test compounds. For use-dependent block (4 Hz), the peak current evoked at the 20th depolarising step to −10 mV was measured for the analysis of the percentage inhibition by test compounds. Peak currents were first normalised to the vehicle addition (0.3% DMSO) in the same well.

MDR1 (P-glycoprotein) = MDR1 (P-glycoprotein) (Homo sapiens (Human), UniProt P08183); experiment: in vitro; details: dog, MDCK-MDR1, pH 7.4
Method: Test compounds were added (10 μM, 0.1% DMSO final, n=2) to donor compartments of the Transwell plate assembly in assay buffer (Hanks balanced salt solution supplemented with 25 mM HEPES, adjusted to pH 7.4) for both apical to basolateral (A>B) and basolateral to apical (B>A) measurements. A parallel series of incubations were performed in the presence of the transporter inhibitor elacridar (5 μM) which was added to both compartments in the transwell plate. Incubations were performed at 37° C., with samples removed from both donor and acceptor chambers at T=0 and 1 hour for recovery assessment and compound analysed by mass spectrometry (LC-MS/MS), including an analytical internal standard.
Apparent permeability (Papp) values were determined from the relationship:
Where V is the volume of each Transwell compartment (apical 125 μL, basolateral 600 μL), and concentrations are the relative MS responses for compound (normalized to internal standard) in the donor chamber before incubation and acceptor chamber at the end of the incubation.
Area=area of cells exposed for drug transfer (0.33 cm2).
Efflux ratios (Papp B>A/Papp A>B) were calculated for each compound from the mean Papp values in each direction. […] The efflux ratios were also calculated in the same way from the runs carried out in the presence of the inhibitor. The net flux is the ratio of the efflux in the absence of inhibitor to that in the presence of inhibitor.
Lucifer Yellow (LY) was added to the apical buffer in all wells to assess viability of the cell layer.
Compound recovery from the wells was determined from MS responses (normalized to internal standard) in donor and acceptor chambers at the end of incubation compared to response in the donor chamber pre-incubation.

HCN2 [6] = molecular target: T1, HCN2; experiment: HCN2 current assay using PatchXpress 7000A; type: cell-based; details: PatchXpress protocol; read-out: PX HCN2 IC50
How it was run: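 Automated patch clamp (PatchXpress 7000A) at about 22° C. HCN current taken as leak-subtracted peak inward current at the end of a step to −110 mV, with a return to −30 mV for 8 seconds. Cumulative concentrations applied 7 minutes each; amplitude normalised to control.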

HCN4 [7] = molecular target: T2, HCN4; experiment: HCN4 current assay using PatchXpress 7000A; type: cell-based; details: PatchXpress protocol; read-out: PX HCN4 IC50
How it was run: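 Peak inward current taken at end of a −130 mV pulse, leak-subtracted, and normalized to the control amplitude. Cumulative concentrations applied for 7 min each at room temperature (approximately 22° C.) on an automated patch-clamp platform.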

HCN1 [8] = molecular target: T3, HCN1; experiment: HCN1 current assay using PatchXpress 7000A; type: cell-based; details: PatchXpress protocol; read-out: PX HCN1 IC50
Method: Example 126A, Using PatchXpress 7000A
as §2
The membrane voltage was then stepped back to −30 mV for a further 8 seconds.
The peak inward current measured at the end of the pulse to −110 mV (HCN1 and HCN2) or −130 mV (HCN4) was measured and any leak current subtracted to calculate the HCN current. The HCN current amplitude was measured after each control or compound addition and normalized to the control amplitude (Control A).
All experiments were performed at room temperature (approximately 22° C.).
Each test compound concentration was applied to the cell for seven (7) minutes, at which point the next cumulative concentration was applied.

hERG channel [9] = molecular target: T4, hERG channel; experiment: hERG assay using IonWorks Quattro; type: cell-based; details: IonWorks protocol; read-out: IW hERG IC50
Method: Example 127A, Using IonWorks Quattro
as §6
This was followed by a […] step of is to −30 mV to evoke the hERG tail current. This sequence was repeated 5 times at a frequency of 0.25 Hz (see FIG. 3). Currents were measured from the tail step at the 5th pulse and referenced to the holding current. Compounds were then incubated for 6-7 minutes prior to a second measurement of the hERG signal using an identical pulse train.

hNav1.5 [10] = molecular target: T5, hNav1.5; remark: listed apart in the source

T3 sequence (O60741 whole entry, species assumed): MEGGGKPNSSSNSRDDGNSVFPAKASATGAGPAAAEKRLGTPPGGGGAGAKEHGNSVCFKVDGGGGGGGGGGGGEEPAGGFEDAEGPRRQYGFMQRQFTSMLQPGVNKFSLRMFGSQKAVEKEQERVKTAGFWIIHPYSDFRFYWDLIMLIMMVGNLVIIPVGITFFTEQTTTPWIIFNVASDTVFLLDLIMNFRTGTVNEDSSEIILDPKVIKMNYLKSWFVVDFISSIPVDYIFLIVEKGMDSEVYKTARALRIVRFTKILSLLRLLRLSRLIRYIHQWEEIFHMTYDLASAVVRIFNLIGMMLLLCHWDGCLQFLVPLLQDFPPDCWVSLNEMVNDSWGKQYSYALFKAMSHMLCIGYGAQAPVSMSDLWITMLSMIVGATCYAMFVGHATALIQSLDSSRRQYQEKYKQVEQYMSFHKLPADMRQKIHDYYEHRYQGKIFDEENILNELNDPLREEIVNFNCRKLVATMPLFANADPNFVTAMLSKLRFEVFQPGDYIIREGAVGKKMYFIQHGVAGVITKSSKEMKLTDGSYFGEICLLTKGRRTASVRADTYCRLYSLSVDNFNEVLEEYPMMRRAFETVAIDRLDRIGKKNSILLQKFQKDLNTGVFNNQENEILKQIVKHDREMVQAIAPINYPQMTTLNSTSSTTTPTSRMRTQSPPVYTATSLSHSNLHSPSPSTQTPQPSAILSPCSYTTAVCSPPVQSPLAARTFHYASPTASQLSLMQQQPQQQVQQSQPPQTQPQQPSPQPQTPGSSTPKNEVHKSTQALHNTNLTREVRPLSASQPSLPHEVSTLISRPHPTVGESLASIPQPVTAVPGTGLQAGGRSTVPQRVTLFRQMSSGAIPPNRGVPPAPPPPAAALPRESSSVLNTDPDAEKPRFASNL
T4 sequence (Q12809 whole entry): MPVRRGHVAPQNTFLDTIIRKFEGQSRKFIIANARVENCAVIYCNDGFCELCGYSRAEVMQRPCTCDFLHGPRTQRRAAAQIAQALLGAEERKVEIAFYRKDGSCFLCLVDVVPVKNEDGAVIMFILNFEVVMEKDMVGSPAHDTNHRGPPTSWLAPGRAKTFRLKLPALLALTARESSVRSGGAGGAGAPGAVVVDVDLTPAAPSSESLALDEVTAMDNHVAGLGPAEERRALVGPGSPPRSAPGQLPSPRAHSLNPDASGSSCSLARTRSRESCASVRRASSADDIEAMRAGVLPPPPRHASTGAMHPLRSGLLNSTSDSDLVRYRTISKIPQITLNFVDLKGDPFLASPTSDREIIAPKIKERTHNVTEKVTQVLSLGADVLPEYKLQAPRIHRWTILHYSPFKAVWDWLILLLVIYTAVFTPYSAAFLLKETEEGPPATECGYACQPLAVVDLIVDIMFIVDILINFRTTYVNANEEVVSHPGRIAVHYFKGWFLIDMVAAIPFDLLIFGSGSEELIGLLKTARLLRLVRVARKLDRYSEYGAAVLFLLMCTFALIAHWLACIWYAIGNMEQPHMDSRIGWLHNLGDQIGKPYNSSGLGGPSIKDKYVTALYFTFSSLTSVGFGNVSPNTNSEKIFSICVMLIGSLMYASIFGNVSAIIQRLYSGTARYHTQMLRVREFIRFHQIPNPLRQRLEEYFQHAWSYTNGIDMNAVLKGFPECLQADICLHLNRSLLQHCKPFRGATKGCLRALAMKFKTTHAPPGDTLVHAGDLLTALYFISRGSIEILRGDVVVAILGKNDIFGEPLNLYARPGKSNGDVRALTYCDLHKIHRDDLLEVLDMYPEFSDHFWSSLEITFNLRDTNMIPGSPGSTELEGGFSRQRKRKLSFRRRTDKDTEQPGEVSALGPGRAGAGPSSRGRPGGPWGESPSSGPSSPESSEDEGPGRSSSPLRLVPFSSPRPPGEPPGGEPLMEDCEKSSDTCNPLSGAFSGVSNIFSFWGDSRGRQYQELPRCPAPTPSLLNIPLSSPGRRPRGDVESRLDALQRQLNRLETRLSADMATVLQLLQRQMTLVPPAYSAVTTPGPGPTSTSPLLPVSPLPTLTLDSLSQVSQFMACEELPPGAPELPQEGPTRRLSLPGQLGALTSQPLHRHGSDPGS
Chain of MDR1 (P-glycoprotein) (P08183 whole entry): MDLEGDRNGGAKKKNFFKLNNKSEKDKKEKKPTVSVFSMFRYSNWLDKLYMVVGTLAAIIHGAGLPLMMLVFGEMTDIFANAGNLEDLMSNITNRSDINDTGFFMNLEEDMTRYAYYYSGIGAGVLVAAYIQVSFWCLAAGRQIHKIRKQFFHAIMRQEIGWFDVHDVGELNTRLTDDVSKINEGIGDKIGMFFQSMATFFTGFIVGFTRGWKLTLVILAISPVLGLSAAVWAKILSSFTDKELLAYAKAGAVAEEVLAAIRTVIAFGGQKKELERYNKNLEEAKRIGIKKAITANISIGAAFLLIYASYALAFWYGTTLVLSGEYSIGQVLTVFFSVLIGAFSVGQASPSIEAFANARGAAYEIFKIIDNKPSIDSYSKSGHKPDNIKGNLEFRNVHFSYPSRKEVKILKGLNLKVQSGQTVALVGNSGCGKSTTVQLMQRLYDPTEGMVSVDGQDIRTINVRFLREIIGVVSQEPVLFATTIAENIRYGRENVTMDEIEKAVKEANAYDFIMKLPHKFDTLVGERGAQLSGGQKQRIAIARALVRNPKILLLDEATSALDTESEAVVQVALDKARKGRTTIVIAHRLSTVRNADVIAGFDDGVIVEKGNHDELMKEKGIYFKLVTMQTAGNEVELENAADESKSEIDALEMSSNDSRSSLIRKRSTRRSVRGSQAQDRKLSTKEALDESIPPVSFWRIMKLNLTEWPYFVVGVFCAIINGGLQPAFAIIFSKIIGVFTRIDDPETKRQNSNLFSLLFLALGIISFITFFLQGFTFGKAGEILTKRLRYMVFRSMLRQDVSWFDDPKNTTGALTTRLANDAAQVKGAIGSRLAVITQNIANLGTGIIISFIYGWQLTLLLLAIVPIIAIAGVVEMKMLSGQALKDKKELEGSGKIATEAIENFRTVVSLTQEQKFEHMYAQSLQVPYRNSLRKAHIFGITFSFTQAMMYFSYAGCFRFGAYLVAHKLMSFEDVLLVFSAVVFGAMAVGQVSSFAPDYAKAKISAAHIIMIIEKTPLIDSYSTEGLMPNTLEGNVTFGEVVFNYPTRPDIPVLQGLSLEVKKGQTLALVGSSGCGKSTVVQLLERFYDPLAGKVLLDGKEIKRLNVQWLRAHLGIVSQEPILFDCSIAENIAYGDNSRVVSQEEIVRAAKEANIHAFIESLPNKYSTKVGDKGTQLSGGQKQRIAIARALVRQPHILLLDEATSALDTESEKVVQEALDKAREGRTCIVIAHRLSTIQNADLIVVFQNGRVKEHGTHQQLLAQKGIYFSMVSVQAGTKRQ
T2 sequence (Q9Y3Q4 whole entry, species assumed): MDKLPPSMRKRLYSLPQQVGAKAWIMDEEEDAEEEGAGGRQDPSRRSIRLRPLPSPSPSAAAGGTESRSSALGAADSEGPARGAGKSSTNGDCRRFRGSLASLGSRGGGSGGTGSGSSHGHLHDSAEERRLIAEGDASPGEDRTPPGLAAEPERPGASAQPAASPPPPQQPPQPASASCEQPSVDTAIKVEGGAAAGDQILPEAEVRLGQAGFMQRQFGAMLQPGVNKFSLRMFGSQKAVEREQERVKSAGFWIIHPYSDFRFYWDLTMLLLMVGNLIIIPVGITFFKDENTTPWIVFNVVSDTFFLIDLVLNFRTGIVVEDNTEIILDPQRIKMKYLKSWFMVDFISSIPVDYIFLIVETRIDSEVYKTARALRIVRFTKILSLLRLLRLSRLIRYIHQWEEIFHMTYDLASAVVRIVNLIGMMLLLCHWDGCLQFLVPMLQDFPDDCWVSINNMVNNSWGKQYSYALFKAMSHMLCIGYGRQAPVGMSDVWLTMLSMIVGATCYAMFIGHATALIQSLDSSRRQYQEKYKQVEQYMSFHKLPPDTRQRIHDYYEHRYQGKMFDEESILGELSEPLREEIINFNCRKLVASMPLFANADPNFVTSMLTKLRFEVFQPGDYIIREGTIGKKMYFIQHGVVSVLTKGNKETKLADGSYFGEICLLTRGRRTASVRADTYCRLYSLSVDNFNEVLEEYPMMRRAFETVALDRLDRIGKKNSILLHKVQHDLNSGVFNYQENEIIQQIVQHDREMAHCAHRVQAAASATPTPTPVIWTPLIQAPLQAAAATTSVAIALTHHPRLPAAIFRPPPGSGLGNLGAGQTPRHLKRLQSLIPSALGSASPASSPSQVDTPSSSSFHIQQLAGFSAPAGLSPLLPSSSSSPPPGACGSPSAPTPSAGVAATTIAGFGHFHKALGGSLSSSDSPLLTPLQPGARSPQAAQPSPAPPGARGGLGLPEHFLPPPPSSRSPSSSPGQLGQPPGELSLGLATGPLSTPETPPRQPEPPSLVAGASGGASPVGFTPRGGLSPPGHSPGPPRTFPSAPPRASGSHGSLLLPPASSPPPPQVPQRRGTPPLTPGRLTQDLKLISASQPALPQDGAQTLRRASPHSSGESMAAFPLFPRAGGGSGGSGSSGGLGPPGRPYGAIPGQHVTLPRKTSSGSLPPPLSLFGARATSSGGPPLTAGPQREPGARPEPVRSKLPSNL

| SMILES | IC50 (HCN2 [1]) [µM] | IC50 (HCN4 [2]) [µM] | IC50 (HCN1 [3]) [µM] | IC50 (hERG channel [4]) [µM] | IC50 (hNav1.5 [5]) [µM] | efflux ratio at 1 h, 10 μM (MDR1 (P-glycoprotein)) | IC50 (HCN2 [6]) [µM] | IC50 (HCN4 [7]) [µM] | IC50 (HCN1 [8]) [µM] | IC50 (hERG channel [9]) [µM] | IC50 (hNav1.5 [10]) [µM] |
| --- | --- | --- | --- | --- | --- | --- | --- | --- | --- | --- | --- |
| CS(=O)(=O)c1ccc(F)c(C[C@H](N)c2ccccc2-c2noc3cc(Cl)ccc23)n1 [Example 13, (S)-1-[2-(6-Chlorobenzo[d]isoxazol-3-yl)phenyl]-2-(3-fluoro-6-methylsulfonylpyridine-2-yl)ethan-1-amine hydrochloride] | 2.6 | > 30 | 3.2 | 1.4 | 15.1 | 6.2 | – | – | – | – | – |
| CS(=O)(=O)c1ccc(F)c(C[C@H](N)c2ccccc2-c2noc3ccc(F)cc23)n1 [Example 22, (S)-1-[2-(5-Fluorobenzo[d]isoxazol-3-yl)phenyl]-2-(3-fluoro-6-methylsulfonylpyridin-2-yl)ethan-1-amine hydrochloride] | – | 20.8 | 27.4 | 5.7 | 24.1 | – | – | – | – | – | – |
| CN(C)C(=O)c1ccc(F)c(C[C@H](N)c2ccccc2-c2noc3ccccc23)n1 [Example 74, (S)-6-{2-Amino-2-[2-(benzo[d]isoxazol-3-yl)phenyl]ethyl}-5-fluoro-N,N-dimethylpyridin-2-carboxamide hydrochloride] | – | – | – | – | – | 16.7 | 1.8 | 20.9 | 4.6 | 9.9 | 11.4 |
| N#Cc1cccc(C[C@H](N)c2ccccc2-c2noc3ccccc23)n1 [Example 116, (S)-1-[2-(Benzo[d]isoxazol-3-yl)phenyl]-2-(6-cyanopyridine-2-yl)ethan-1-amine hydrochloride] | – | – | – | – | – | 1.1 | 0.7 | 13.5 | 3.4 | 10.3 | 11.1 |
| Cc1ccc2c(-c3ccccc3[C@@H](N)Cc3nc(S(C)(=O)=O)ccc3F)noc2c1 [Example 11, (S)-2-(3-Fluoro-6-methylsulfonylpyridine-2-yl)-1-[2-(6-methylbenzo[d]isoxazol-3-yl)phenyl]ethan-1-amine hydrochloride] | 3.2 | 30 | – | 4.7 | 21.4 | 5.2 | – | – | – | – | – |
| CS(=O)(=O)c1ccc(F)c(C[C@H](N)c2ccccc2-c2noc3cc(F)ccc23)n1 [Example 20, (S)-2-(3-Fluoro-6-methylsulfonylpyridin-2-yl)-1-[2-(6-fluorobenzo[d]isoxazol-3-yl)phenyl]ethan-1-amine hydrochloride] | 3.1 | > 30 | 16.9 | 2.9 | 28.1 | 6.2 | – | – | – | – | – |
| Cc1ccc2c(-c3ccccc3[C@@H](N)Cc3nc(S(C)(=O)=O)ccc3C)noc2c1 [Example 19, (S)-2-(3-Methyl-6-methylsulfonylpyridin-2-yl)-1-[2-(6-methylbenzo[d]isoxazol-3-yl)phenyl]ethan-1-amine hydrochloride] | 1.4 | 13.1 | 2.9 | 1.3 | 11.5 | 12.4 | – | – | – | – | – |
| NC(=O)c1ccc(F)c(C[C@H](N)c2ccccc2-c2noc3ccccc23)n1 [Example 72, (S)-6-{2-Amino-2-[2-(benzo[d]isoxazol-3-yl)phenyl]ethyl}-5-fluoropyridine-2-carboxamide formate] | – | – | – | – | – | 11.3 | 1.2 | 10.3 | 1 | 20.9 | 18.6 |
| CS(=O)(=O)c1ccc(F)c(C[C@H](N)c2ccccc2-c2noc3c(F)cccc23)n1 [Example 26, (S)-1-[2-(7-Fluorobenzo[d]isoxazol-3-yl)phenyl]-2-(3-fluoro-6-methylsulfonylpyridin-2-yl)ethan-1-amine hydrochloride] | 1.8 | > 30 | 25.7 | 15.1 | 19.2 | 4.2 | – | – | – | – | – |
| Cn1nc(-c2ccccc2[C@@H](N)Cc2ccccn2)c2ccccc21 [Example 60, (S)-1-[2-(1-Methyl-1H-indazole-3-yl)phenyl]-2-(pyridine-2-yl)ethan-1-amine hydrochloride] | – | – | – | – | – | – | 3.1 | > 30 | > 30 | 0.32 | 9.2 |
| Cc1ccc(S(C)(=O)=O)nc1C[C@H](N)c1ccccc1-c1noc2cc(F)ccc12 [Example 24, (S)-1-[2-(6-Fluorobenzo[d]isoxazol-3-yl)phenyl]-2-(3-methyl-6-methylsulfonylpyridin-2-yl)ethan-1-amine hydrochloride] | 1.3 | 7.8 | 4.2 | 3.4 | 22.4 | 10.4 | – | – | – | – | – |

Second part, led by results:

| IC50 (HCN2 [1]) [µM] | SMILES | IC50 (HCN4 [2]) [µM] | IC50 (HCN1 [3]) [µM] | IC50 (hERG channel [4]) [µM] | IC50 (hNav1.5 [5]) [µM] | efflux ratio at 1 h, 10 μM (MDR1 (P-glycoprotein)) | IC50 (HCN2 [6]) [µM] | IC50 (HCN4 [7]) [µM] | IC50 (HCN1 [8]) [µM] | IC50 (hERG channel [9]) [µM] | IC50 (hNav1.5 [10]) [µM] |
| --- | --- | --- | --- | --- | --- | --- | --- | --- | --- | --- | --- |
| 2 | N[C@@H](Cc1nc(Br)ccc1F)c1ccccc1-c1noc2cc(Br)ccc12 [Example 16, (S)-2-(6-Bromo-3-fluoropyridine-2-yl)-1-[2-(6-bromobenzo[d]isoxazol-3-yl)phenyl]-ethan-1-amine] | – | 3 | – | – | – | – | – | – | – | – |
| 1.4 | N#Cc1ccc(F)c(C[C@H](N)c2ccccc2-c2noc3cc(Br)ccc23)n1 [Example 27, (S)-2-{2-Amino-2-[2-(6-bromobenzo[d]isoxazol-3-yl)phenyl]ethyl}-3-fluoropyridine-6-carbonitrile] | – | – | – | – | – | – | – | – | – | – |
| 1.7 | Cc1ccc(S(C)(=O)=O)nc1C[C@H](N)c1ccccc1-c1noc2cc(Cl)ccc12 [Example 23, (S)-1-[2-(6-Chlorobenzo[d]isoxazol-3-yl)phenyl]-2-(3-methyl-6-methylsulfonylpyridin-2-yl)ethan-1-amine hydrochloride] | – | – | 1.2 | 13.9 | – | – | – | – | – | – |
| 2.5 | CS(=O)(=O)c1ccc(F)c(C[C@H](N)c2ccccc2-c2noc3cc(Br)ccc23)n1 [Example 21, (S)-1-[2-(6-Bromobenzo[d]isoxazol-3-yl)phenyl]-2-(3-Fluoro-6-methylsulfonylpyridin-yl)ethan-1-amine hydrochloride] | – | 5.3 | – | – | – | – | – | – | – | – |
| 17.2 | CS(=O)(=O)c1ccc(F)c(C[C@H](N)c2ccccc2-c2noc3cc(C(F)(F)F)ccc23)n1 [Example 10, (S)-2-(3-Fluoro-6-methylsulfonylpyridine-2-yl)-1-[2-(6-trifluoromethylbenzo[d]isoxazol-3-yl)phenyl]ethan-1-amine hydrochloride] | – | – | – | – | – | – | – | – | – | – |
| 1 | Cc1ccc(C#N)nc1C[C@H](N)c1ccccc1-c1noc2cc(Br)ccc12 [Example 28, (S)-2-{2-Amino-2-[2-(6-bromobenzo[d]isoxazol-3-yl)phenyl]ethyl}-3-methylpyridine-6-carbonitrile] | – | – | – | – | – | – | – | – | – | – |
| 5.8 | N#Cc1ccc2c(-c3ccccc3[C@@H](N)Cc3nc(Br)ccc3F)noc2c1 [Example 17, (S)-2-(6-Bromo-3-fluoropyridine-2-yl)-1-[2-(6-cyanobenzo[d]isoxazol-3-yl)phenyl]-ethan-1-amine hydrochloride] | – | – | 3.1 | – | – | – | – | – | – | – |
| > 30 | CC(C)S(=O)(=O)c1ccc(F)c(C[C@H](N)c2ccccc2-c2noc3cc(Cl)ccc23)n1 [Example 25, (S)-1-[2-(6-Chlorobenzo[d]isoxazol-3-yl)phenyl]-2-(3-fluoro-6-isopropyisulfonylpyridin-2-yl)ethan-1-amine hydrochloride] | – | – | – | – | – | – | – | – | – | – |
| 1.2 | N[C@@H](Cc1nc(Br)ccc1F)c1ccccc1-c1noc2cc(F)ccc12 [Example 15, (S)-2-(6-Bromo-3-fluoropyridine-2-yl)-1-[2-(6-fluorobenzo[d]isoxazol-3-yl)phenyl]-ethan-1-amine hydrochloride] | – | 5.1 | – | – | – | – | – | – | – | – |
